pIC50: −log10 of the molar value.
Legend:
[1] = target: CDK2/CyclinE (Homo sapiens, UniProt P24941); assay: CDK2/CyclinE Flashplate assay, 96-well format, biotinylated-Rb peptide substrate; type: biochemical
In short: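 Biotinylated Rb peptide was captured on streptavidin Flashplates, and CDK2/CyclinE (200 ng/well) was preincubated 30 min on ice with inhibitor at 10, 3, 1, 0.3 or 0.1 μM final. Reactions ran 45 min at RT with 1 μM ATP plus 1 μCi ^33P-ATP. After washing, incorporated ^33P was counted, in duplicate.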

[2] = target: CDK4/CyclinD1 (Homo sapiens, UniProt P11802); assay: CDK4/CyclinD1 Flashplate assay, 96-well format, biotinylated-Rb peptide substrate; type: biochemical
In short: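 Biotinylated Rb peptide bound to streptavidin Flashplate; CDK4/CyclinD1 (70 ng/well) preincubated 30 min on ice with compound at 10, 3, 1, 0.3 and 0.1 μM final. Reaction with 1 μM cold ATP plus 33P-ATP for 45 min at RT; incorporated 33P counted, duplicates.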

Sequence of CDK4/CyclinD1 (P11802 whole entry, species assumed): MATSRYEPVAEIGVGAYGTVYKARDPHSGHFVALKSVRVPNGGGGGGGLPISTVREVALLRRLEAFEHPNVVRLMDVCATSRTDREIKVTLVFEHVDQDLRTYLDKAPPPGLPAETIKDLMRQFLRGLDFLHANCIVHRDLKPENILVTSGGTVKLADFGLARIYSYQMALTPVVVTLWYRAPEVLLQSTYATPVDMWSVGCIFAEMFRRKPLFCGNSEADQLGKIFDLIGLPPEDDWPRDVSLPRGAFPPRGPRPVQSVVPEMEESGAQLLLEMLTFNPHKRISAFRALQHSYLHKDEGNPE
Sequence of CDK4/CyclinD1 (P24385 whole entry partner, species assumed): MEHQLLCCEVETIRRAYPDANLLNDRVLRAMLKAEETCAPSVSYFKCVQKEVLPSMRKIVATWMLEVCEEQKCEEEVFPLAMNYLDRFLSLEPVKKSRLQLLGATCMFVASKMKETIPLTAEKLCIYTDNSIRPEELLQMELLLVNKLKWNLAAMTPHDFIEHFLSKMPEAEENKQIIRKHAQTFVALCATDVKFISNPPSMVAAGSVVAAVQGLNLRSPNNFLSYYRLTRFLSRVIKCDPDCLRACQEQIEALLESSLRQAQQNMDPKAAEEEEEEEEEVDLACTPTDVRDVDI

pIC50 [1] | inhibition at 10 µM [2] [%] | pIC50 [2] | SMILES
5.80 | 84 |  | O=C(Nc1cccc(F)c1)Nc1nc2cc(OS(=O)(=O)c3ccc(NC4CCCC4)cc3)ccc2[nH]1 [Example 58-d, 4-Cyclopentylamino-benzenesulfonic acid 2-[3-(3-fluoro-phenyl)-ureido]-1H-benzoimidazol-5-yl ester]
7.40 |  | 7.00 | O=C(NCCO)Nc1nc2cc(OS(=O)(=O)c3ccc(NC4CCCC4)cc3)ccc2[nH]1 [Example 58-e, 4-Cyclopentylamino-benzenesulfonic acid 2-[3-(2-hydroxy-ethyl)-ureido]-1H-benzoimidazol-5-yl ester]
6.15 | 91 |  | O=C(Nc1ccc(F)cc1)Nc1nc2cc(OS(=O)(=O)c3ccc(NC4CCCC4)cc3)ccc2[nH]1 [Example 58-f, 4-Cyclopentylamino-benzenesulfonic acid 2-[3-(4-fluoro-phenyl)-ureido]-1H-benzoimidazol-5-yl ester]
6.00 | 69 |  | O=C(NCc1ccccc1Cl)Nc1nc2cc(OS(=O)(=O)c3ccc(NC4CCCC4)cc3)ccc2[nH]1 [Example 58-g, 4-Cyclopentylamino-benzenesulfonic acid 2-[3-(2-chloro-benzyl)-ureido]-1H-benzoimidazol-5-yl ester]
6.52 | 81 |  | O=C(Nc1nc2cc(OS(=O)(=O)c3ccc(NC4CCCC4)cc3)ccc2[nH]1)N1CCC1 [Example 58-i, 4-Cyclopentylamino-benzenesulfonic acid 2-[(azetidine-1-carbonyl)-amino]-1H-benzoimidazol-5-yl ester]
8.05 |  | 6.30 | O=C(NCc1cccnc1)Nc1nc2cc(OS(=O)(=O)c3ccc(NC4CCCC4)cc3)ccc2[nH]1 [Example 58-j, 4-Cyclopentylamino-benzenesulfonic acid 2-(3-pyridin-3-ylmethyl-ureido)-1H-benzoimidazol-5-yl ester]
7.40 |  | 6.30 | CN1CCN(CCCNC(=O)Nc2nc3cc(OS(=O)(=O)c4ccc(NC5CCCC5)cc4)ccc3[nH]2)CC1 [Example 58-k, 4-Cyclopentylamino-benzenesulfonic acid 2-{3-[3-(4-methyl-piperazin-1-yl)-propyl]-ureido}-1H-benzoimidazol-5-yl ester]
7.52 |  | 6.00 | O=C(NCc1ccccc1)Nc1nc2cc(OS(=O)(=O)c3ccc(NC4CCCC4)cc3)ccc2[nH]1 [Example 58-l, 4-Cyclopentylamino-benzenesulfonic acid 2-(3-benzyl-ureido)-1H-benzoimidazol-5-yl ester]
7.52 |  | 6.62 | COC(=O)CCCNC(=O)Nc1nc2cc(OS(=O)(=O)c3ccc(NC4CCCC4)cc3)ccc2[nH]1 [Example 58-m, 4-{3-[5-(4-Cyclopentylamino-benzenesulfonyloxy)-1H-benzoimidazol-2-yl]-ureido}-butyric acid methyl ester]
7.70 |  | 7.54 | COC(=O)CNC(=O)Nc1nc2cc(OS(=O)(=O)c3ccc(NC4CCCC4)cc3)ccc2[nH]1 [Example 58-o, 4-{3-[5-(4-Cyclopentylamino-benzenesulfonyloxy)-1H-benzoimidazol-2-yl]-ureido}-acetic acid methyl ester]
7.70 | 80 |  | COC(=O)[C@@H]1CCCN1C(=O)Nc1nc2cc(OS(=O)(=O)c3ccc(NC4CCCC4)cc3)ccc2[nH]1 [Example 58-r, 1-[5-(4-Cyclopentylamino-benzenesulfonyloxy)-1H-benzoimidazol-2S-yl-carbamoyl]-pyrrolidine-2-carboxylic acid methyl ester]
7.70 |  | 7.92 | NC(=O)CNC(=O)Nc1nc2cc(OS(=O)(=O)c3ccc(NC4CCCC4)cc3)ccc2[nH]1 [Example 58-s, 4-Cyclopentylamino-benzenesulfonic acid 2-(3-carbamoylmethyl-ureido)-1H-benzoimidazol-5-yl ester]
8.00 |  | 6.54 | O=C(NCC1CCNCC1)Nc1nc2cc(OS(=O)(=O)c3ccc(NC4CCCC4)cc3)ccc2[nH]1 [Example 58-u, 4-Cyclopentylamino-benzenesulfonic acid 2-(3-piperidin-4-ylmethyl-ureido)-1H-benzoimidazol-5-yl ester]
7.00 |  | 6.96 | O=C(NCCN1CCOCC1)Nc1nc2cc(OS(=O)(=O)c3ccc(NC4CCCC4)cc3)ccc2[nH]1 [Example 58-v, 4-Cyclopentylamino-benzenesulfonic acid 2-[3-(2-morpholin-4-yl-ethyl)-ureido]-1H-benzoimidazol-5-yl ester]
6.60 |  | 6.72 | CC(C)(N)CNC(=O)Nc1nc2cc(OS(=O)(=O)c3ccc(NC4CCCC4)cc3)ccc2[nH]1 [Example 58-w, 4-Cyclopentylamino-benzenesulfonic acid 2-[3-(2-amino-2-methyl-propyl)-ureido]-1H-benzoimidazol-5-yl ester]
7.40 |  | 6.51 | O=C(Nc1nc2cc(OS(=O)(=O)c3ccc(NC4CCCC4)cc3)ccc2[nH]1)N[C@H]1CC[C@H](O)CC1 [Example 58-x, 4-Cyclopentylamino-benzenesulfonic acid 2-[3-(4trans-hydroxy-cyclohexyl)-ureido]-1H-benzoimidazol-5-yl ester]
8.00 |  | 6.57 | O=C(NCCCO)Nc1nc2cc(OS(=O)(=O)c3ccc(NC4CCCC4)cc3)ccc2[nH]1 [Example 58-y, 4-Cyclopentylamino-benzenesulfonic acid 2-[3-(3-hydroxy-propyl)-ureido]-1H-benzoimidazol-5-yl ester]
8.10 |  | 7.00 | NC(=O)CNC(=O)Nc1nc2cc(OS(=O)(=O)c3ccc(NCC4CCCO4)cc3)ccc2[nH]1 (stereo not shown) [Example 59-a, 4-[(Tetrahydro-furan-2-ylmethyl)-amino]-benzenesulfonic acid 2-(3-carbamoylmethyl-ureido)-1H-benzoimidazol-5-yl ester]
8.15 |  | 6.52 | O=C(NCCO)Nc1nc2cc(OS(=O)(=O)c3ccc(NCC4CCCO4)cc3)ccc2[nH]1 (stereo not shown) [Example 59-b, 4-[(Tetrahydro-furan-2-ylmethyl)-amino]-benzenesulfonic acid 2-[3-(2-hydroxy-ethyl)-ureido]-1H-benzoimidazol-5-yl ester]
8.15 |  | 6.00 | O=C(NCCCO)Nc1nc2cc(OS(=O)(=O)c3ccc(NCC4CCCO4)cc3)ccc2[nH]1 (stereo not shown) [Example 59-c, 4-[(Tetrahydro-furan-2-ylmethyl)-amino]-benzenesulfonic acid 2-[3-(3-hydroxy-propyl)-ureido]-1H-benzoimidazol-5-yl ester]
7.82 |  | 6.30 | O=C(NCCCCO)Nc1nc2cc(OS(=O)(=O)c3ccc(NCC4CCCO4)cc3)ccc2[nH]1 (stereo not shown) [Example 59-d, 4-[(Tetrahydro-furan-2-ylmethyl)-amino]-benzenesulfonic acid 2-[3-(4-hydroxy-butyl)-ureido]-1H-benzoimidazol-5-yl ester]
7.00 |  | 5.80 | COCC(C)NC(=O)Nc1nc2cc(OS(=O)(=O)c3ccc(NCC4CCCO4)cc3)ccc2[nH]1 (stereo not shown) [Example 59-e, 4-[(Tetrahydro-furan-2-ylmethyl)-amino]-benzenesulfonic acid 2-[3-(2-methoxy-1-methyl-ethyl)-ureido]-1H-benzoimidazol-5-yl ester]
7.22 |  | 5.74 | CCN1CCCC1CNC(=O)Nc1nc2cc(OS(=O)(=O)c3ccc(NCC4CCCO4)cc3)ccc2[nH]1 (stereo not shown) [Example 59-f, 4-[(Tetrahydro-furan-2-ylmethyl)-amino]-benzenesulfonic acid 2-[3-(1-ethyl-pyrrolidin-2-ylmethyl)-ureido]-1H-benzoimidazol-5-yl ester]
6.70 |  | 5.74 | O=C(NCCN1CCCC1)Nc1nc2cc(OS(=O)(=O)c3ccc(NCC4CCCO4)cc3)ccc2[nH]1 (stereo not shown) [Example 59-g, 4-[(Tetrahydro-furan-2-ylmethyl)-amino]-benzenesulfonic acid 2-[3-(2-pyrrolidin-1-yl-ethyl)-ureido]-1H-benzoimidazol-5-yl ester]
6.70 |  | 5.96 | O=C(NCCCN1CCCC1)Nc1nc2cc(OS(=O)(=O)c3ccc(NCC4CCCO4)cc3)ccc2[nH]1 (stereo not shown) [Example 59-h, 4-[(Tetrahydro-furan-2-ylmethyl)-amino]-benzenesulfonic acid 2-[3-(3-pyrrolidin-1-yl-propyl)-ureido]-1H-benzoimidazol-5-yl ester]
7.40 |  | 5.92 | O=C(NCCN1CCOCC1)Nc1nc2cc(OS(=O)(=O)c3ccc(NCC4CCCO4)cc3)ccc2[nH]1 (stereo not shown) [Example 59-i, 4-[(Tetrahydro-furan-2-ylmethyl)-amino]-benzenesulfonic acid 2-[3-(2-morpholin-4-yl-ethyl)-ureido]-1H-benzoimidazol-5-yl ester]
8.15 |  | 6.05 | CCNC(=O)Nc1nc2cc(OS(=O)(=O)c3ccc(NCC4CCCO4)cc3)ccc2[nH]1 (stereo not shown) [Example 59-j, 4-[(Tetrahydro-furan-2-ylmethyl)-amino]-benzenesulfonic acid 2-(3-ethyl-ureido)-1H-benzoimidazol-5-yl ester]
7.70 |  | 6.52 | O=C(NCc1ccccn1)Nc1nc2cc(OS(=O)(=O)c3ccc(NCC4CCCO4)cc3)ccc2[nH]1 (stereo not shown) [Example 59-k, 4-[(Tetrahydro-furan-2-ylmethyl)-amino]-benzenesulfonic acid 2-(3-pyridin-2-ylmethyl-ureido)-1H-benzoimidazol-5-yl ester]
8.40 |  | 6.52 | O=C(NCc1cccnc1)Nc1nc2cc(OS(=O)(=O)c3ccc(NCC4CCCO4)cc3)ccc2[nH]1 (stereo not shown) [Example 59-l, 4-[(Tetrahydro-furan-2-ylmethyl)-amino]-benzenesulfonic acid 2-(3-pyridin-3-ylmethyl-ureido)-1H-benzoimidazol-5-yl ester]
